Experiments:
[1] = molecular target: IL-17A(FLAG-Tagged): IL-17RA(His-Tagged) (Homo sapiens, UniProt Q16552, K93Q); test: IL-17A(FLAG-Tagged): IL-17RA(His-Tagged) Binding Disruption Eu-HTRF Assay; conditions: IL-17A/IL-17RA binding disruption, simple average if tested more than once
In short: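 IC50 comes from a one-site competition fit of the HTRF 665/620 nm ratio. Compound dilutions (2-fold, 22 points) were held 1 h rt with FLAG-tagged IL-17A dimer, then His-tagged IL-17RA plus Eu-cryptate anti-FLAG and D2 anti-His antibodies were added for 2 h rt.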

[2] = tested on: IL-17A-induced G-CSF production in human normal keratinocyte (NHK); test: NHK Assay: IL-17A-induced G-CSF production in human normal keratinocytes; format: cell-based; conditions: Homo sapiens, Keratinocyte, 24 h, adult normal human keratinocytes, IL-17A 5 ng/mL, simple average if tested more than once
In short: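 Adult normal human keratinocytes were seeded at 3000-4000 cells/well. Recombinant human IL-17A was pre-incubated 1 h at rt with titrated compound, then added to cells (final 5 ng/mL IL-17A, 0.2% DMSO, 5% FBS) for 24 h at 37° C. Supernatant G-CSF was measured by HTRF against a standard curve to give IC50.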

Chain of UniProt Q16552 (Q16552 with tags, fused parts or gaps K93Q): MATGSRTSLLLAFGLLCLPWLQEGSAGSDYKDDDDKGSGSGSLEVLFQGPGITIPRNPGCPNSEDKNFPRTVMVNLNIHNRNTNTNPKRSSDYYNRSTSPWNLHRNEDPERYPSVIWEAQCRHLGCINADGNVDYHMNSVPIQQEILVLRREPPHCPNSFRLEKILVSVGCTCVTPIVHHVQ

## N#Cc1ccccc1C(=O)N[C@H](c1cn2ncc([C@H](NC(=O)CCC(F)(F)F)C3CC3)cc2n1)C1CCC(F)(F)CC1 [Example 208, 2-Cyano-N—((S)-(7-((R)-cyclopropyl(4,4,4-trifluorobutanamido)methyl)imidazo[1,2-b]pyridazin-2-yl)(4,4-difluorocyclohexyl)methyl)benzamide]
[1]
  IC50: 5.3 µM
[2]
  IC50: > 20 µM

## Cc1ccncc1C(=O)N[C@H](c1cn2ncc([C@H](NC(=O)CCC(F)(F)F)C3CC3)cc2n1)C1CCC(F)(F)CC1 [Example 209, N—((S)-(7-((R)-Cyclopropyl(4,4,4-trifluorobutanamido)methyl)imidazo[1,2-b]pyridazin-2-yl)(4,4-difluorocyclohexyl)methyl)-4-methylnicotinamide]
[1]
  IC50: 1.4 µM
[2]
  IC50: > 20 µM

## O=C(CCC(F)(F)F)N[C@@H](c1cnn2cc([C@@H](NC(=O)c3cncc(C(F)(F)F)n3)C3CCC(F)(F)CC3)nc2c1)C1CC1 [Example 210, N—((S)-(7-((R)-Cyclopropyl(4,4,4-trifluorobutanamido)methyl)imidazo[1,2-b]pyridazin-2-yl)(4,4-difluorocyclohexyl)methyl)-6-(trifluoromethyl)pyrazine-2-carboxamide]
[1]
  IC50: 0.62 µM
[2]
  IC50: > 20 µM

## COc1nccc(C(=O)N[C@H](c2cn3ncc([C@H](NC(=O)CCC(F)(F)F)C4CC4)cc3n2)C2CCC(F)(F)CC2)n1 [Example 211, N—((S)-(7-((R)-Cyclopropyl(4,4,4-trifluorobutanamido)methyl)imidazo[1,2-b]pyridazin-2-_yl)(4,4-difluorocyclohexyl)methyl)-2-methoxypyrimidine-4-carboxamide]
[1]
  IC50: 4.3 µM
[2]
  IC50: > 20 µM

## Cc1ccnc(C(=O)N[C@H](c2cn3ncc([C@H](NC(=O)CCC(F)(F)F)C4CC4)cc3n2)C2CCC(F)(F)CC2)n1 [Example 212, N—((S)-(7-((R)-Cyclopropyl(4,4,4-trifluorobutanamido)methyl)imidazo[1,2-b]pyridazin-2-yl)(4,4-difluorocyclohexyl)methyl)-4-methylpyrimidine-2-carboxamide]
[1]
  IC50: 13 µM
[2]
  IC50: > 20 µM

## N#Cc1ccc(C(=O)N[C@H](c2cn3ncc([C@H](NC(=O)CCC(F)(F)F)C4CC4)cc3n2)C2CCC(F)(F)CC2)cc1 [Example 213, 4-Cyano-N—((S)-(7-((R)-cyclopropyl(4,4,4-trifluorobutanamido)methyl)imidazo[1,2-b]pyridazin-2-yl)(4,4-difluorocyclohexyl)methyl)benzamide]
[1]
  IC50: 0.45 µM
[2]
  IC50: 20 µM

## Cc1cnccc1C(=O)N[C@H](c1cn2ncc([C@H](NC(=O)CCC(F)(F)F)C3CC3)cc2n1)C1CCC(F)(F)CC1 [Example 214, N—((S)-(7-((R)-Cyclopropyl(4,4,4-trifluorobutanamido)methyl)imidazo[1,2-b]pyridazin-2-yl)(4,4-difluorocyclohexyl)methyl)-3-methylisonicotinamide]
[1]
  IC50: 2.9 µM
[2]
  IC50: > 20 µM

## COc1cncc(C(=O)N[C@H](c2cn3ncc([C@H](NC(=O)CCC(F)(F)F)C4CC4)cc3n2)C2CCC(F)(F)CC2)n1 [Example 215, N—((S)-(7-((R)-Cyclopropyl(4,4,4-trifluorobutanamido)methyl)imidazo[1,2-b]pyridazin-2-yl)(4,4-difluorocyclohexyl)methyl)-6-methoxypyrazine-2-carboxamide]
[1]
  IC50: 2 µM
[2]
  IC50: > 20 µM

## O=C(CCC(F)(F)F)N[C@@H](c1cnn2cc([C@@H](NC(=O)c3ccnc(C4CC4)n3)C3CCC(F)(F)CC3)nc2c1)C1CC1 [Example 216, 2-Cyclopropyl-N—((S)-(7-((R)-cyclopropyl(4,4,4-trifluorobutanamido)methyl)imidazo[1,2-b]pyridazin-2-yl)(4,4-difluorocyclohexyl)methyl)pyrimidine-4-carboxamide]
[1]
  IC50: 1.6 µM
[2]
  IC50: > 20 µM

## O=C(CCC(F)(F)F)N[C@@H](c1cnn2cc([C@@H](NC(=O)c3nccc(C(F)(F)F)n3)C3CCC(F)(F)CC3)nc2c1)C1CC1 [Example 217, N—((S)-(7-((R)-Cyclopropyl(4,4,4-trifluorobutanamido)methyl)imidazo[1,2-b]pyridazin-2-yl)(4,4-difluorocyclohexyl)methyl)-4-(trifluoromethyl)pyrimidine-2-carboxamide]
[1]
  IC50: 4.6 µM
[2]
  IC50: > 20 µM

## Cc1cc(C(=O)N[C@H](c2cn3ncc([C@H](NC(=O)CCC(F)(F)F)C4CC4)cc3n2)C2CCC(F)(F)CC2)ncn1 [Example 218, N—((S)-(7-((R)-Cyclopropyl(4,4,4-trifluorobutanamido)methyl)imidazo[1,2-b]pyridazin-2-yl)(4,4-difluorocyclohexyl)methyl)-6-methylpyrimidine-4-carboxamide]
[1]
  IC50: 2 µM
[2]
  IC50: > 20 µM

## Cc1nccnc1C(=O)N[C@H](c1cn2ncc([C@H](NC(=O)CCC(F)(F)F)C3CC3)cc2n1)C1CCC(F)(F)CC1 [Example 219, N—((S)-(7-((R)-Cyclopropyl(4,4,4-trifluorobutanamido)methyl)imidazo[1,2-b]pyridazin-2-yl)(4,4-difluorocyclohexyl)methyl)-3-methylpyrazine-2-carboxamide]
[1]
  IC50: 2.1 µM
[2]
  IC50: > 20 µM

## Cc1cncc(C(=O)N[C@H](c2cn3ncc([C@H](NC(=O)CCC(F)(F)F)C4CC4)cc3n2)C2CCC(F)(F)CC2)n1 [Example 220, N—((S)-(7-((R)-Cyclopropyl(4,4,4-trifluorobutanamido)methyl)imidazo[1,2-b]pyridazin-2-yl)(4,4-difluorocyclohexyl)methyl)-6-methylpyrazine-2-carboxamide]
[1]
  IC50: 15 µM
[2]
  IC50: > 20 µM

## O=C(CCC(F)(F)F)N[C@@H](c1cnn2cc([C@@H](NC(=O)c3cccc(C(F)(F)F)n3)C3CCC(F)(F)CC3)nc2c1)C1CC1 [Example 221, N—((S)-(7-((R)-Cyclopropyl(4,4,4-trifluorobutanamido)methyl)imidazo[1,2-b]pyridazin-2-yl)(4,4-difluorocyclohexyl)methyl)-6-(trifluoromethyl)picolinamide]
[1]
  IC50: 16 µM
[2]
  IC50: > 20 µM

## Cc1ncncc1C(=O)N[C@H](c1cn2ncc([C@H](NC(=O)CCC(F)(F)F)C3CC3)cc2n1)C1CCC(F)(F)CC1 [Example 222, N—((S)-(7-((R)-Cyclopropyl(4,4,4-trifluorobutanamido)methyl)imidazo[1,2-b]pyridazin-2-yl)(4,4-difluorocyclohexyl)methyl)-4-methylpyrimidine-5-carboxamide]
[1]
  IC50: 1 µM
[2]
  IC50: > 20 µM

## O=C(CCC(F)(F)F)N[C@@H](c1cnn2cc([C@@H](NC(=O)c3cnccn3)C3CCC(F)(F)CC3)nc2c1)C1CC1 [Example 223, N—((S)-(7-((R)-Cyclopropyl(4,4,4-trifluorobutanamido)methyl)imidazo[1,2-b]pyridazin-2-yl)(4,4-difluorocyclohexyl)methyl)pyrazine-2-carboxamide]
[1]
  IC50: 2.9 µM
[2]
  IC50: > 20 µM

## Cc1cccc(C(=O)N[C@H](c2cn3ncc([C@H](NC(=O)CCC(F)(F)F)C4CC4)cc3n2)C2CCC(F)(F)CC2)n1 [Example 224, N—((S)-(7-((R)-Cyclopropyl(4,4,4-trifluorobutanamido)methyl)imidazo[1,2-b]pyridazin-2-yl)(4,4-difluorocyclohexyl)methyl)-6-methylpicolinamide]
[1]
  IC50: 1.7 µM
[2]
  IC50: > 20 µM

## N#Cc1ccncc1C(=O)N[C@H](c1cn2ncc([C@H](NC(=O)CCC(F)(F)F)C3CC3)cc2n1)C1CCC(F)(F)CC1 [Example 225, 4-Cyano-N—((S)-(7-((R)-cyclopropyl(4,4,4-trifluorobutanamido)methyl)imidazo[1,2-b]pyridazin-2-yl)(4,4-difluorocyclohexyl)methyl)nicotinamide]
[1]
  IC50: 9.5 µM
[2]
  IC50: > 20 µM

## COc1cccc(C(=O)N[C@H](c2cn3ncc([C@H](NC(=O)CCC(F)(F)F)C4CC4)cc3n2)C2CCC(F)(F)CC2)n1 [Example 226, N—((S)-(7-((R)-Cyclopropyl(4,4,4-trifluorobutanamido)methyl)imidazo[1,2-b]pyridazin-2-yl)(4,4-difluorocyclohexyl)methyl)-6-methoxypicolinamide]
[1]
  IC50: 2.5 µM
[2]
  IC50: > 20 µM

## CC(C)Oc1cccc(C(=O)N[C@H](c2cn3ncc([C@H](NC(=O)CCC(F)(F)F)C4CC4)cc3n2)C2CCC(F)(F)CC2)n1 [Example 227, N—((S)-(7-((R)-Cyclopropyl(4,4,4-trifluorobutanamido)methyl)imidazo[1,2-b]pyridazin-2-yl)(4,4-difluorocyclohexyl)methyl)-6-isopropoxypicolinamide]
[1]
  IC50: 0.9 µM
[2]
  IC50: 20 µM

## CCc1cccc(C(=O)N[C@H](c2cn3ncc([C@H](NC(=O)CCC(F)(F)F)C4CC4)cc3n2)C2CCC(F)(F)CC2)n1 [Example 228, N—((S)-(7-((R)-Cyclopropyl(4,4,4-trifluorobutanamido)methyl)imidazo[1,2-b]pyridazin-2-yl)(4,4-difluorocyclohexyl)methyl)-6-ethylpicolinamide]
[1]
  IC50: 1 µM
[2]
  IC50: > 20 µM

## O=C(CCC(F)(F)F)N[C@@H](c1cnn2cc([C@@H](NC(=O)c3cccc(C(F)F)n3)C3CCC(F)(F)CC3)nc2c1)C1CC1 [Example 229, N—((S)-(7-((R)-Cyclopropyl(4,4,4-trifluorobutanamido)methyl)imidazo[1,2-b]pyridazin-2-yl)(4,4-difluorocyclohexyl)methyl)-6-(difluoromethyl)picolinamide]
[1]
  IC50: 1.2 µM
[2]
  IC50: > 20 µM
